Tests used:
HT-29 = assay: Antiproliferative activity against human HT-29 cells assessed as reduction in cell growth after 48 hrs by MTT assay; type: functional, cell-based; conditions: HT-29, 48 h
HeLa = assay: Antiproliferative activity against human HeLa cells assessed as reduction in cell growth after 48 hrs by MTT assay; type: functional, cell-based
A549 [1] = assay: Antiproliferative activity against human A549 cells assessed as reduction in cell growth after 48 hrs by MTT assay; type: functional, cell-based; conditions: A549, 48 h
MCF7 = assay: Antiproliferative activity against human MCF7 cells assessed as reduction in cell growth after 48 hrs by MTT assay; type: functional, cell-based; conditions: MCF7, 48 h
HEK293 = assay: Cytotoxicity against HEK293 cells assessed as reduction in cell growth after 48 hrs by MTT assay; type: cell-based; conditions: Homo sapiens, HEK293, 48 h
A2780 = assay: Antiproliferative activity against paclitaxel-resistant human A2780 cells assessed as reduction in cell growth after 48 hrs by MTT assay; type: functional, cell-based; conditions: A2780, 48 h
A549 [2] = assay: Antiproliferative activity against cisplatin resistant human A549 cells assessed as reduction in cell growth after 48 hrs by MTT assay; type: functional, cell-based; conditions: A549, 48 h
[3] = Inhibition of porcine brain tubulin polymerization measured for 20 mins by spectrometric assay; type: tissue-based, Sus scrofa

| SMILES | IC50 (HT-29) [µM] | also measured |
| --- | --- | --- |
| COc1cc(-c2nnc3n2N=C(C)CS3)cc(OC)c1OC | 15.8 | – |
| COc1cc(-c2nnc3n2N=C(Nc2cccc(F)c2)CS3)cc(OC)c1OC | > 20 | – |
| COc1cc(-c2nnc(SCC(=O)c3ccc(C)cc3F)n2N)cc(OC)c1OC | 0.131 | IC50 (HeLa): 0.04 µM; IC50 (A549 [1]): > 100 µM; IC50 (MCF7): > 100 µM |
| COc1cc(-c2nnc3n2N=C(Nc2ccc(S(C)(=O)=O)cc2)CS3)cc(OC)c1OC | > 20 | – |
| COc1cc(-c2nnc3n2N=C(NCc2ccc(Br)cc2)CS3)cc(OC)c1OC | > 20 | – |
| COc1ccc(NC2=Nn3c(nnc3-c3cc(OC)c(OC)c(OC)c3)SC2)cc1 | > 20 | – |
| COc1cc(-c2nnc3n2N=C(C2CC2)CS3)cc(OC)c1OC | > 20 | – |
| COc1ccc(-c2nnc3n2N=C(c2cc(OC)c(OC)c(OC)c2)CS3)cc1OC | > 20 | – |
| COc1ccc(CCNC2=Nn3c(nnc3-c3cc(OC)c(OC)c(OC)c3)SC2)cc1 | > 20 | – |
| COc1ccc(C2=Nn3c(nnc3-c3cc(OC)c(OC)c(OC)c3)SC2)cc1O | 9.81 | – |
| COc1cc(C2=Nn3c(nnc3-c3cc(OC)c(OC)c(OC)c3)SC2)cc(OC)c1OC | 19.9 | – |
| COc1cc(-c2nnc3n2N=C(NCCc2ccc(F)cc2)CS3)cc(OC)c1OC | > 20 | – |
| COc1cc(-c2nnc3n2N=C(Nc2ccc(N4CCOCC4)cc2)CS3)cc(OC)c1OC | > 20 | – |
| COc1ccc(/C=C\c2cc(OC)c(OC)c(OC)c2)cc1O [COMBRETASTATIN A4] | – | IC50 (A549 [1]): 0.021 µM; IC50 (HEK293): 45.7 µM; IC50 (A2780): 72.8 µM; IC50 (A549 [2]): 130 µM |
| COc1cc(-c2nnc3n2N=C(Nc2c(Cl)cccc2Cl)CS3)cc(OC)c1OC | > 20 | – |
| CCC1=Nn2c(nnc2-c2cc(OC)c(OC)c(OC)c2)SC1 | 15.4 | – |
| COc1cc(-c2nnc3n2N=C(NCCc2ccc(Cl)cc2)CS3)cc(OC)c1OC | > 20 | – |
| COc1cc(-c2nnc3n2N=C(NCc2ccc(Cl)cc2)CS3)cc(OC)c1OC | > 20 | – |
| COc1cc(-c2nnc3n2N=C(NCc2ccc(C)cc2)CS3)cc(OC)c1OC | > 20 | – |
| COc1cccc(NC2=Nn3c(nnc3-c3cc(OC)c(OC)c(OC)c3)SC2)c1 | 12.2 | – |
| COc1ccc(-c2nnc3n2N=C(c2cc(OC)c(OC)c(OC)c2)CS3)cc1O | 9.86 | – |
| COc1cc(NC2=Nn3c(nnc3-c3cc(OC)c(OC)c(OC)c3)SC2)cc(OC)c1OC | > 20 | – |
| COc1cc(-c2nnc3n2N=C(NCCc2ccc(C)cc2)CS3)cc(OC)c1OC | > 20 | – |

Now from value to compound, other results behind:

| IC50 (HT-29) [µM] | SMILES | also measured |
| --- | --- | --- |
| 19.7 | COc1cc(C2=Nn3c(nnc3-c3ccc(F)cc3)SC2)cc(OC)c1OC | – |
| 8.32 | COc1cc(-c2nnc3n2N=C(c2ccc(F)cc2)CS3)cc(OC)c1OC | – |
| 18.6 | COc1cc(-c2nnc3n2N=C(Nc2ccc(Br)cc2)CS3)cc(OC)c1OC | – |
| 0.18 | COc1ccc(C2=Nn3c(nnc3-c3cc(OC)c(OC)c(OC)c3)SC2)cc1 | IC50 (HeLa): 0.018 µM; IC50 (A549 [1]): 0.077 µM; IC50 (MCF7): 0.205 µM; IC50 (HEK293): > 100 µM; IC50 (A2780): 62.2 µM; IC50 (A549 [2]): 67.2 µM; IC50 [3]: 2.39 µM |
| > 20 | COc1cc(C2=Nn3c(nnc3-c3ccc(Cl)cc3)SC2)cc(OC)c1OC | – |
| > 20 | COc1cc(-c2nnc3n2N=C(NCc2ccccc2)CS3)cc(OC)c1OC | – |
| > 20 | COc1cc(-c2nnc3n2N=C(c2ccc([N+](=O)[O-])cc2)CS3)cc(OC)c1OC | – |
| 5.18 | COc1cc(-c2nnc3n2N=C(c2ccc(Br)cc2)CS3)cc(OC)c1OC | – |
| > 20 | COc1cc(-c2nnc3n2N=C(c2ccc(F)c(F)c2)CS3)cc(OC)c1OC | – |
| > 20 | COc1cc(-c2nnc3n2N=C(NCCc2ccccc2)CS3)cc(OC)c1OC | – |
| 2.84 | COc1cc(-c2nnc3n2N=C(Nc2ccc(Cl)cc2)CS3)cc(OC)c1OC | – |
| 14.1 | COc1cc(-c2nnc3n2N=C(c2ccc(O)cc2)CS3)cc(OC)c1OC | – |
| 5.65 | COc1cc(-c2nnc3n2N=C(c2ccccc2)CS3)cc(OC)c1OC | – |
| 10.8 | COc1cc(-c2nnc3n2N=C(c2ccco2)CS3)cc(OC)c1OC | – |
| 16.1 | COc1cc(-c2nnc3n2N=C(c2ccccc2C)CS3)cc(OC)c1OC | – |
| 4.25 | COc1cc(-c2nnc3n2N=C(c2cccs2)CS3)cc(OC)c1OC | – |
| 3.25 | COc1cc(-c2nnc3n2N=C(Nc2ccccc2)CS3)cc(OC)c1OC | – |
| 13.7 | COc1cc(-c2nnc3n2N=C(c2ccc(-c4ccccc4)cc2)CS3)cc(OC)c1OC | – |
| > 20 | COc1cc(-c2nnc3n2N=C(Nc2ccc(C)cc2)CS3)cc(OC)c1OC | – |
| 6.02 | COc1cc(-c2nnc3n2N=C(c2cccc4ccccc24)CS3)cc(OC)c1OC | – |
| > 20 | COc1ccc(-c2nnc3n2N=C(c2cc(OC)c(OC)c(OC)c2)CS3)cc1 | – |
| 8.11 | COc1cc(-c2nnc3n2N=C(Nc2ccc(F)cc2)CS3)cc(OC)c1OC | – |
| 2.9 | COc1cc(-c2nnc3n2N=C(Nc2ccccc2F)CS3)cc(OC)c1OC | – |
| 10.4 | COc1cc(-c2nnc3n2N=C(c2cc4ccccc4oc2=O)CS3)cc(OC)c1OC | – |
| 15.4 | COc1cc(-c2nnc3n2N=C(c2cccc(Br)c2)CS3)cc(OC)c1OC | – |
| 5.94 | COc1cccc(C2=Nn3c(nnc3-c3cc(OC)c(OC)c(OC)c3)SC2)c1 | – |
| 0.29 | COc1cc(-c2nnc3n2N=C(c2ccc(C(F)(F)F)cc2)CS3)cc(OC)c1OC | IC50 (HeLa): 0.019 µM; IC50 (A549 [1]): 0.286 µM; IC50 (MCF7): 0.241 µM; IC50 (HEK293): > 100 µM; IC50 (A2780): 86.5 µM; IC50 (A549 [2]): > 200 µM; IC50 [3]: 4.82 µM |
| > 20 | COc1cc(-c2nnc3n2N=C(Nc2ccccc2C)CS3)cc(OC)c1OC | – |
| > 20 | COc1cc(C2=Nn3c(nnc3-c3ccc(C)cc3)SC2)cc(OC)c1OC | – |
| 13.6 | COc1cc(-c2nnc3n2N=C(c2cccc(C)c2)CS3)cc(OC)c1OC | – |

From ChEMBL document CHEMBL4706609, “Development of triazolothiadiazine derivatives as highly potent tubulin polymerization inhibitors: Structure-activity relationship, in vitro and in vivo study” (Eur J Med Chem, 2020)
